Source: patent US12655130B2 (ASSEMBLY BIOSCIENCES, INC., priority 2020, dated 2026)

These molecules were tested on HBV viral load (viral production from HepAD38 cells) (assay: Activity of test compounds on viral production from HepAD38 cells (viral load by qPCR of HBV core sequence)). Conditions: Hepatitis B virus, HePAD38, 120 h, viral load lowering, 5 days, qPCR of supernatant, read-out: VL HepAD38 EC50 range.
Assay type: cell-based
Method in brief: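 EC50 and CC50 come from four-parameter logistic fits: HBV core DNA in supernatant by TaqMan qPCR against DNA standards, normalised to DMSO controls, and cell viability by CellTiter-Glo. Cells were plated at 50,000/well without tetracycline (2% FBS) and exposed to compounds (highest 10 μM) for 5 days, 37 °C.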
`Cn1cnc(C2CC3CC(N4CCCCC4)CC3C2)c1C(=O)Nc1ccc(F)c(Cl)c1` (stereo not drawn) [Example 46, 5-[-5-(1-Piperidinyl)-1,2,3,3a,4,5,6,6a-octahydropentalen-2-yl]-N-(3-chloro-4-fluorophenyl)-3-methyl-4-imidazolecarboxamide] gave an EC50 of 0.01 to 0.05 µM. Work on `Cn1cnc(C2CC3CC(N4CCOCC4)CC3C2)c1C(=O)Nc1ccc(F)c(Cl)c1` (stereo not drawn) [Example 47, 5-[-5-(4-Morpholinyl)-1,2,3,3a,4,5,6,6a-octahydropentalen-2-yl]-N-(3-chloro-4-fluorophenyl)-3-methyl-4-imidazolecarboxamide] yielded an EC50 of 0.05 to 0.5 µM. In the case of `Cn1cnc(C2CC3CC(O)(CS(C)(=O)=O)CC3C2)c1C(=O)Nc1ccc(F)c(Cl)c1` (single isomer, unassigned) [Example 3, N-(3-Chloro-4-fluorophenyl)-4-(5-hydroxy-5-((methylsulfonyl)methyl)octahydropentalen-2-yl)-1-methyl-1H-imidazole-5-carboxamide], the EC50 is reported as under 0.01 µM. For `Cn1cnc(C2CC3CC(O)(c4cc(C(F)F)nn4C)CC3C2)c1C(=O)Nc1ccc(F)c(Cl)c1` (stereo not drawn) [Example 133, N-(3-chloro-4-fluorophenyl)-4-(5-(3-(difluoromethyl)-1-methyl-1H-pyrazol-5-yl)-5-hydroxyoctahydropentalen-2-yl)-1-methyl-1H-imidazole-5-carboxamide], the EC50 was under 0.01 µM. `CCNc1cc(C2(O)CC3CC(c4ncn(C)c4C(=O)Nc4ccc(F)c(Cl)c4)CC3C2)n(C)n1` (stereo not drawn) [Example 200, N-(3-Chloro-4-fluorophenyl)-4-(5-(3-(ethylamino)-1-methyl-1H-pyrazol-5-yl)-5-hydroxyoctahydropentalen-2-yl)-1-methyl-1H-imidazole-5-carboxamide] gave an EC50 of under 0.01 µM. For `Cn1cc(C2(O)CC3CC(c4ncn(C)c4C(=O)Nc4ccc(F)c(Cl)c4)CC3C2)c(C(C)(C)O)n1` (stereo not drawn) [Example 187, N-(3-Chloro-4-fluorophenyl)-4-(5-hydroxy-5-(3-(2-hydroxypropan-2-yl)-1-methyl-1H-pyrazol-4-yl)octahydropentalen-2-yl)-1-methyl-1H-imidazole-5-carboxamide], the EC50 was under 0.01 µM. For `Cn1cnc(C2CC3CC(O)(c4c(F)cnn4C)CC3C2)c1C(=O)Nc1ccc(F)c(Cl)c1` (stereo not drawn) [Example 124, N-(3-chloro-4-fluorophenyl)-4-(5-(4-fluoro-1-methyl-1H-pyrazol-5-yl)-5-hydroxyoctahydropentalen-2-yl)-1-methyl-1H-imidazole-5-carboxamide], the EC50 was under 0.01 µM. `CCCCC1(O)CC2CC(c3nc(Cl)n(C)c3C(=O)Nc3ccc(F)c(Cl)c3)CC2C1` (stereo not drawn) [Example 113, 4-(5-Butyl-5-hydroxyoctahydropentalen-2-yl)-2-chloro-N-(3-chloro-4-fluorophenyl)-1-methyl-1H-imidazole-5-carboxamide] showed an EC50 of under 0.01 µM. `Cn1cnc(C2CC3CC(O)(c4c(F)c(C(C)(C)O)nn4C)CC3C2)c1C(=O)Nc1ccc(F)c(Cl)c1` (stereo not drawn) [Example 66, N-(3-Chloro-4-fluorophenyl)-4-(5-(4-fluoro-3-(2-hydroxypropan-2-yl)-1-methyl-1H-pyrazol-5-yl)-5-hydroxyoctahydropentalen-2-yl)-1-methyl-1H-imidazole-5-carboxamide] was tested, and the EC50 was under 0.01 µM. `COc1cc(C2(O)CC3CC(c4ncn(C)c4C(=O)Nc4ccc(F)c(Cl)c4)CC3C2)n(C)n1` (stereo not drawn) [Example 93, N-(3-chloro-4-fluorophenyl)-4-(5-hydroxy-5-(3-methoxy-1-methyl-1H-pyrazol-5-yl)octahydropentalen-2-yl)-1-methyl-1H-imidazole-5-carboxamide] showed an EC50 of under 0.01 µM. `Cn1cnc(C2CC3CC(O)(c4cc(C(O)C(F)(F)F)nn4C)CC3C2)c1C(=O)Nc1ccc(F)c(C#N)c1` (stereo not drawn) [Example 107, N-(3-Cyano-4-fluorophenyl)-4-(5-hydroxy-5-(1-methyl-3-(2,2,2-trifluoro-1-hydroxyethyl)-1H-pyrazol-5-yl)octahydropentalen-2-yl)-1-methyl-1H-imidazole-5-carboxamide] was tested, and the EC50 was under 0.01 µM. In the case of `CC#Cc1cc(C2(O)CC3CC(c4ncn(C)c4C(=O)Nc4ccc(F)c(Cl)c4)CC3C2)n(C)n1` (stereo not drawn) [Example 56, N-(3-Chloro-4-fluorophenyl)-4-(5-hydroxy-5-(1-methyl-3-(prop-1-yn-1-yl)-1H-pyrazol-5-yl)octahydropentalen-2-yl)-1-methyl-1H-imidazole-5-carboxamide], the EC50 is reported as under 0.01 µM. Molecule `O=C(Nc1ccc(F)c(Cl)c1)c1c(C2CC3CC(O)(C(F)(F)F)CC3C2)nc2n1CCC2` (single isomer, unassigned) [Example 34, N-(3-Chloro-4-fluorophenyl)-2-(5-hydroxy-5-(trifluoromethyl)octahydropentalen-2-yl)-6,7-dihydro-5H-pyrrolo[1,2-a]imidazole-3-carboxamide] has an EC50 of 0.01 to 0.05 µM. With `Cn1cnc(C2CC3CC(O)(C(F)(F)F)CC3C2)c1C(=O)Nc1ccc(F)c(Cl)c1` (stereo not drawn) [Example 12, N-(3-Chloro-4-fluorophenyl)-4-(5-hydroxy-5-(trifluoromethyl)octahydropentalen-2-yl)-1-methyl-1H-imidazole-5-carboxamide] the EC50 was under 0.01 µM. `Cn1cnc(C2CC3CC(O)(c4cc([N+](=O)[O-])n[nH]4)CC3C2)c1C(=O)Nc1ccc(F)c(Cl)c1` (stereo not drawn) [Example 146, N-(3-Chloro-4-fluorophenyl)-4-(5-hydroxy-5-(3-nitro-1H-pyrazol-5-yl)octahydropentalen-2-yl)-1-methyl-1H-imidazole-5-carboxamide] was tested, and the EC50 was under 0.01 µM. `Cn1cnc(C2CC3CC(O)(c4c(C(F)F)cnn4C)CC3C2)c1C(=O)Nc1ccc(F)c(Cl)c1` (stereo not drawn) [Example 145, N-(3-Chloro-4-fluorophenyl)-4-(5-(4-(difluoromethyl)-1-methyl-1H-pyrazol-5-yl)-5-hydroxyoctahydropentalen-2-yl)-1-methyl-1H-imidazole-5-carboxamide] showed an EC50 of under 0.01 µM. Molecule `CC(=O)Nc1cc(C2(O)CC3CC(c4ncn(C)c4C(=O)Nc4ccc(F)c(Cl)c4)CC3C2)n(C)n1` (stereo not drawn) [Example 163, 4-(5-(3-Acetamido-1-methyl-1H-pyrazol-5-yl)-5-hydroxyoctahydropentalen-2-yl)-N-(3-chloro-4-fluorophenyl)-1-methyl-1H-imidazole-5-carboxamide] has an EC50 of under 0.01 µM. With `CC(=O)Nc1cc(C2(O)CC3CC(c4ncn(C)c4C(=O)Nc4ccc(F)c(Cl)c4)CC3C2)n(C(C)C)n1` (stereo not drawn) [Example 166, 4-(5-(3-Acetamido-1-isopropyl-1H-pyrazol-5-yl)-5-hydroxyoctahydropentalen-2-yl)-N-(3-chloro-4-fluorophenyl)-1-methyl-1H-imidazole-5-carboxamide] the EC50 was under 0.01 µM. `CN(C)S(=O)(=O)c1cc(C2(O)CC3CC(c4ncn(C)c4C(=O)Nc4ccc(F)c(Cl)c4)CC3C2)n(C)n1` (stereo not drawn) [Example 100, N-(3-chloro-4-fluorophenyl)-4-(5-(3-(N,N-dimethylsulfamoyl)-1-methyl-1H-pyrazol-5-yl)-5-hydroxyoctahydropentalen-2-yl)-1-methyl-1H-imidazole-5-carboxamide] was tested, and the EC50 was under 0.01 µM. Work on `CC(C)(C)OC(=O)N1CCn2c(nc(C3CC4CC(=O)CC4C3)c2C(=O)Nc2ccc(F)c(Cl)c2)C1` (stereo not drawn) [Example 90, tert-butyl 3-((3-chloro-4-fluorophenyl)carbamoyl)-2-(5-oxooctahydro-pentalen-2-yl)-5,6-dihydroimidazo[1,2-a]pyrazine-7(8H)-carboxylate] yielded an EC50 of 0.05 to 0.5 µM. With `Cc1nc(C2CC3CC(O)(C(F)(F)F)CC3C2)c(C(=O)Nc2ccc(F)c(Cl)c2)n1C` (stereo not drawn) [Example 26, N-(3-Chloro-4-fluorophenyl)-4-(5-hydroxy-5-(trifluoromethyl)octahydropentalen-2-yl)-1,2-dimethyl-1H-imidazole-5-carboxamide] the EC50 was 0.01 to 0.05 µM. For `CC(CO)COc1cc(C2(O)CC3CC(c4ncn(C)c4C(=O)Nc4ccc(F)c(Cl)c4)CC3C2)n(C)n1` (stereo not drawn) [Example 211, N-(3-Chloro-4-fluorophenyl)-4-(5-hydroxy-5-(3-(3-hydroxy-2-methylpropoxy)-1-methyl-1H-pyrazol-5-yl)octahydropentalen-2-yl)-1-methyl-1H-imidazole-5-carboxamide], the EC50 was under 0.01 µM. `CC(C)Cc1cc(C2(O)CC3CC(c4ncn(C)c4C(=O)Nc4ccc(F)c(Cl)c4)CC3C2)n(C)n1` (stereo not drawn) [Example 196, N-(3-Chloro-4-fluorophenyl)-4-(5-hydroxy-5-(3-isobutyl-1-methyl-1H-pyrazol-5-yl)octahydropentalen-2-yl)-1-methyl-1H-imidazole-5-carboxamide] was tested, and the EC50 was under 0.01 µM. In the case of `Cn1cnc(C2CC3CC(NC4CC4)CC3C2)c1C(=O)Nc1ccc(F)c(Cl)c1` (single isomer, unassigned) [Example 44, 5-[-5-(Cyclopropylamino)-1,2,3,3a,4,5,6,6a-octahydropentalen-2-yl]-N-(3-chloro-4-fluorophenyl)-3-methyl-4-imidazolecarboxamide], the EC50 is reported as 0.01 to 0.05 µM. `CC(CO)Nc1cc(C2(O)CC3CC(c4ncn(C)c4C(=O)Nc4ccc(F)c(Cl)c4)CC3C2)n(C)n1` (stereo not drawn) [Example 217, N-(3-Chloro-4-fluorophenyl)-4-(5-hydroxy-5-(3-((1-hydroxypropan-2-yl)amino)-1-methyl-1H-pyrazol-5-yl)octahydropentalen-2-yl)-1-methyl-1H-imidazole-5-carboxamide] gave an EC50 of under 0.01 µM.

Same assay, conditions: read-out: VL HepAD38 EC50 range, viral load lowering, 5 days, qPCR of supernatant
In the case of `O=C1CC2CC(c3nc4n(c3C(=O)Nc3ccc(F)c(Cl)c3)CCCC4)CC2C1` (stereo not drawn) [Example 40, 2-[-5-Oxo-2,3,3a,4,6,6a-hexahydro-1H-pentalen-2-yl]-N-(3-chloro-4-fluorophenyl)-5,6,7,8-tetrahydroimidazo[1,2-a]pyridine-3-carboxamide], the EC50 is reported as 0.05 to 0.5 µM.

Same assay, conditions: viral load lowering, 5 days, qPCR of supernatant, read-out: VL HepAD38 EC50 range
For `Cn1cnc(-c2ccc(C3CCC(c4ncn(C)c4C(=O)Nc4ccc(F)c(Cl)c4)C3)cc2)c1` (stereo not drawn) [Example 15, N-(3-Chloro-4-fluorophenyl)-1-methyl-4-(3-(4-(1-methyl-1H-imidazol-4-yl)phenyl)cyclopentyl)-1H-imidazole-5-carboxamide], the EC50 was under 0.01 µM.
